# In US10001483B2, “Methods for the treatment of Kaposi's sarcoma or KSHV-induced lymphoma using immunomodulatory compounds, and uses of biomarkers” (Celgene Corporation, priority 2015, dated 2018):
# Marks after values point to notes of the source that are not given here.
# Experiments:
# [1] = test system: Kaposi sarcoma; test: Clinical study of pomalidomide in Kaposi sarcoma patients with and without HIV: KS responses by modified ACTG criteria; format: in vivo, human
# Procedure: Enrollment: 22 patients (15 HIV positive and 7 HIV negative) median age 52 years (range 32-74) were studied. All patients with HIV were receiving antiretroviral therapy (ART) for median 48 months (7-227), HIV VL<50 copies/mL (all), and CD4 count 378 cells/μl (135-752). […] All were evaluable for response.
# (§1) Aspirin at 81 mg daily was administered as thromboprophylaxis. Assessments were performed every 4 weeks for lymphocyte numbers, Kaposi sarcoma associated herpesvirus (KSHV/HHV8) viral load (VL) and HIV VL and at 8 weeks for T cell subsets and activation by immunophenotyping of peripheral blood mononuclear cells (PBMC). KSHV VL in PBMC and HIV VL in plasma were assayed by quantitative PCR; an ultrasensitive single copy assay was used for HIV VL. Changes from baseline were evaluated using the Wilcoxon signed rank test with P<0.005 considered significant given multiple comparisons. Differences in changes between the HIV infected and uninfected groups were evaluated using the Wilcoxon rank sum test. Median time of the patients on therapy 7 cycles (range 2-12).
# Kaposi sarcoma responses: KS responses were evaluated every cycle and categorized as complete (CR), partial (PR), stable disease (SD), or progressive disease (PD) using modified ACTG criteria. To be evaluable for response, patients completed at least two cycles of therapy. Evaluations included lesion counts, measurement of the sum product of the diameters of five indicator lesions, assessment of nodularity, and measurement of limb circumference if tumor-associated edema was present. PR was considered as at least 50% decrease in number of lesions and/or sum product of the diameters of marker lesions and/or nodularity of lesions, and no new lesions in previously uninvolved areas nor criteria for PD. CR was considered as clinical resolution of all lesions and tumor-associated phenomenon, with biopsy confirmation. Both CR and PR had to be sustained for 4 weeks. Best response was evaluated for each patient.
# Complete and partial responses are objective tumor responses by modified AIDS Clinical Trial Group Criteria for KS. Complete response also requires pathological confirmation. Individual responses are shown in FIG. 1A (maximal change in number of nodular lesions) and FIG. 1B (maximal change in total number of lesions). No decrease in quality of life during therapy was reported by patient. Improved satisfaction with appearance was reported by patients. […] This includes objective responses in patients previously refractory to standard cytotoxic therapy and in patients who have previously received other immunomodulatory drugs (e.g., thalidomide, lenalidomide, or both).
# HIV infected and uninfected cohorts were evaluated separately and combined. The unacceptable ORR for further development was defined as 10% and a desirable (targeted) ORR as 40%. Up to 10 HIV negative patients were to be enrolled, with the goal of […]; that would have 83.3% probability of occurring if the true ORR were 40% and 7.0% probability of occurring if the true ORR were 10%. Up to 15 HIV positive patients were to be enrolled, with the goal of […]; that would have 90.9% probability of occurring if the true ORR were 40% and 5.6% probability of occurring if the true ORR were 10%.
# [2] = test system: HIV-1; test: Plasma HIV viral load by ultrasensitive single copy assay; format: in vivo
# Procedure: as §1
# Laboratory Assays: Lymphocyte subsets were assessed by fluorescent-activated cell sorting using the BlueOcean platform (Beckman Coulter, Carlsbad, Calif.). Plasma HIV-1 […] was evaluated using an ultrasensitive assay whose sensitivity was 1 viral copy per plasma volume. Briefly, a triplex PCR was used using a modification of a previously reported assay with three primers: one spanning the start codon of gag, one in the gag coding region, and one internal control. Samples were tested from 6 mL plasma aliquots, with 12 replicants per sample. KSHV VL in peripheral blood mononuclear cells (PBMC) was assessed by quantitative real-time PCR.
# Changes in immunologic and virologic parameters were evaluated by a Wilcoxon signed rank test. Exact Wilcoxon rank sum tests were used to compare pharmacokinetic parameters at each time point and differences from baseline. All p-values are two-tailed and reported without adjustment for multiple comparisons. HRQL was analyzed using a using a mixed model repeated measures analysis for FAHI and the marginal homogeneity test for KS-specific questions
# [3] = test system: IRF4; test: Western blot of IRF4 in PEL cell lines; format: cell-based; conditions: BC-3, BCBL-1, JSC-1
# From the text: In addition, the effect of the immunomodulatory drugs on KSHV down-regulation of MHC-1 during lytic activation was investigated by FACS analysis after pretreating the cells with Immunomodulatory drugs prior to lytic activation with butyrate.
# (§2) Cell Culture: The PEL lines JSC-1 (John Hopkins University, Baltimore, Md.), dually infected with Epstein-Barr virus (EBV) and HHV-8, and BC-3 (ATCC, Rockville, Md.) and BCBL-1(National Institute of Health AIDS Research and Reagent Program, Rockville, Md.), harboring KSHV only, and CA-46, an uninfected cancerous B-cell line, were grown in RPMI 1640 medium (Invitrogen, Carlsbad, Calif.) supplemented with 15% fetal-bovine serum (FBS) (Thermo Scientific, Rockford, Ill.) and Pen/Strep glutamine at 37° C. with 5% CO2.
# (§3) Western Blotting: At the end of an incubation period, cells were lysed and nuclear/cytoplasmic extracts were prepared using the NE-PER nuclear extraction kit (Pierce). Samples were subjected to SDS-PAGE (4 to 12% NuPAGE Tris-Bis) (Invitrogen) and transferred to nitrocellulose. The membrane was blocked with 5% w/v nonfat dry milk in 1×TBST (10 mM Tris-Hcl, […], 150 mM NaCl, and 0.05% Tween 20) overnight at 4° C. […]
# [4] = test system: p21; test: Western blot of p21 in PEL cell lines; format: cell-based; conditions: 10 ii M for 72 hours; FIGS. 6A-6B
# Procedure: as §2
# as §3, with “C. Blots were incubated with indicated antibodies such as anti-IRF-7 (Santa Cruz), anti-IRF-4 (Cell Signaling), anti-p21 (Cell Signaling), anti-NF-κB p65 (Cell Signaling), anti-NF-κB phospho-p65 (Cell Signaling), IFN-γRa (Cell Signaling), or anti-CRBN (Sigma-Aldrich), and subjected to the appropriate secondary antibody conjugated to alkaline phosphatase (Promega). Bands were visualized with Western Blue stabilized substrate (Promega).” for “C.”
# [5] = Combined, 22 assessable, patients (%), 5 mg per day orally 21 of 28 days
# [6] = HIV negative, 7 assessable, patients (%)
# [7] = HIV positive, 15 assessable, patients (%)
# [8] = restricted to the 15 HIV positive subjects, paired data for 10-13 patients
smiles,measurement,setting,value
"Nc1cccc2c1C(=O)N(C1CCC(=O)NC1=O)C2=O (centres unmarked) [pomalidomide, 4-amino-2-(2,6-dioxopiperidin-3-yl)isoindoline-1,3-dione]",response in HIV-uninfected subjects,[1]; 5 mg for 21 of 28 days,all HIV-uninfected subjects responded
same,overall response rate,"[1]; 5 mg for 21 of 28 days, symptomatic KS regardless of HIV status",73%
same,subjects with edema having evidence of improvement in tumor-associated edema,[1]; 10 of 17 subjects with edema,59%
same,Complete Response (CR),[1]; [5],4 (18%)
same,Partial Response (PR),[1]; [5],12 (55%)
same,Progressive Disease (PD),[1]; [5],3 (14%)
same,Overall Response (CR + PR),"[1]; Combined, 22 assessable, patients (%), 5 mg per day orally 21 days of 28 day cycles",16 (73%)
same,Time to Response,"[1]; Combined, range (4-36)",4 weeks
same,Progressive Disease (PD),"[1]; HIV negative, 7 assessable, patients",0
same,Complete Response (CR),[1]; [6],1 (14%)
same,Partial Response (PR),[1]; [6],6 (86%)
same,Overall Response (CR + PR),"[1]; HIV negative, 7 assessable, patients (%), 5 mg per day orally 21 of 28 days",7 (100%)
same,Time to Response,"[1]; HIV negative, range (4-36)",4 weeks
same,Complete Response (CR),[1]; [7],3 (20%)
same,Partial Response (PR),[1]; [7],6 (40%)
same,Overall Response (CR + PR),"[1]; HIV positive, 15 assessable, patients (%), 5 mg per day orally 21 of 28 days",9 (60%)
same,Progressive Disease (PD),"[1]; HIV positive, 15 assessable, patients (%), includes one subject non-adherent to ART and protocol therapy",3 (20%)*
same,Time to Response,"[1]; HIV positive, range (4-32)",8 weeks
same,"KS responses, character",[1]; including patients refractory to cytotoxic therapy or previously given other immunomodulatory drugs,"responses were generally rapid, were linked to improved self reported outcomes, and occurred even in advanced and heavily pretreated KS"
same,subjects in whom limb circumference showed at least a 2 cm reduction with therapy,"[1]; number of subjects, of 17 with edema",8
same,representative response of a left great toe lesion,"[1]; one patient, after 4 weeks, FIG. 10B",complete flattening of the lesion
same,representative response of a left great toe lesion,"[1]; same patient, 24 weeks, FIG. 10C",complete resolution of the lesion and a complete pathological response
same,HIV VL,"[2]; plasma, ultrasensitive single copy assay",no significant change
same,"Plasma HIV VL (copies/mL) Change to End Therapy (Med, range)",[2]; [8],−0.5 copies/mL
same,"Plasma HIV VL (copies/mL) Change to Week 8 (Med, range)",[2]; [8],+0.75 copies/mL
same,"Plasma HIV VL (copies/mL) Change to Week 4 (Med, range)","[2]; restricted to the 15 HIV positive subjects, paired data for 10-13 patients, baseline 1.5",+0.3 copies/mL
same,IRF4 expression level,"[3]; 1 μM and 10 μM, FIGS. 4A-4D",downregulated IRF4 in all three PEL lines
same,IRF4 expression level,"[3]; indicated concentrations for 72 hours, among three tested compounds, FIGS. 3A-3C",most effective in downregulating IRF4
same,p21 levels,[4],most effective in up-regulating p21
